# Tests used:
# PDL2:IMPα1 complex = target: T1, PDL2:IMPα1 complex (Homo sapiens, UniProt P52292); assay: Binding specificity assay (DUOLINK PDL2 and IMPα1); format: cell-based; details: MDA-MB-231, any concentration (10 μM to 0.00975 μM)
# T1 construct: with concentrations ranging from 10 μM to 0.00975 μM; endogenous in cells; host or cells: MDA-MB-231
# Procedure: MDA-MB-231 cells were treated with DL-2; with concentrations ranging from 10 μM to 0.00975 μM. Cover slips were mounted on glass microscope slides with Prolong nucleus glass Antifade reagent (Life Technologies). PDL2 and IMPα1 DUOLINK Digital images were analyzed using ImageJ software (ImageJ, NIH, Bethesda, MD, USA) and graphs represent the mean DOT Fluorescent Intensity in the nucleus or the cytoplasm compartments with significant differences calculated as per Kruskal-Wallis one-way ANOVA.
# [1] = system: metastatic initiating cells (MICs) from stage IV metastatic cancer patients; assay: Pre-clinical treatment of MICs from patient liquid biopsies; format: cell-based, human; details: cancer cells from NSCLC, TNBC and melanoma patients
# From the text: Mesenchymal MICs were isolated from TNBC, lung cancer and melanoma patient liquid biopsies (scored for RECIST v1.1 for immunotherapy/therapeutic resistance or responsiveness (Complete Response, Partial Response or Progressive Disease) and pre-clinically screened with either vehicle control or the nuclear PDL1 inhibitor, DL-2. Samples were fixed and immunofluorescence microscopy performed on these cells with primary antibodies targeting CSV, PDL1-PTM1 (acetylated nuclear PDL1), ALDH1A1 and ABCB5. Graph represents the CFI values for CSV, NFI for PDL1- PTM1, ALDH1A1 and FI for ABCB5 measured using the ASI Digital pathology automated system to select the nucleus minus background (n≥40 cells/sample/5 patients a group).
smiles,measurement,setting,value
CCCCCCCCCCCCCC(=O)NC(C)C(=O)NC1CSCc2cc3cc(c2)CSC[C@H](NC(=O)[C@H](Cc2ccccc2)NC(=O)[C@H](C(C)CC)NC(=O)[C@H](Cc2ccccc2)NC(=O)[C@H]([C@@H](C)O)NC(=O)C(CC(C)C)NC1=O)C(=O)N[C@@H](CCCNC(C)=N)C(=O)N[C@@H](CC(C)C)C(=O)N[C@@H](CCCNC(=N)N)C(=O)N[C@@H](CCCCN)C(=O)NCC(=O)N[C@@H](CCCNC(=N)N)C(=O)NC(C(=O)N[C@@H](CCSC)C(=O)NC(CCSC)C(=O)N[C@@H](CC(=O)O)C(=O)NC(C(=O)N[C@@H](CCCCN)C(=O)NC(CCCCN)C(=O)O)C(C)C)CSC3 (mixture of isomers) [DL-2],PDL2:IMPα1 complex (DUOLINK),PDL2:IMPα1 complex,no significant effect
same,"expression of ABCB5, ALDH1A1 and PDL1-PTM1 in MICs",[1],inhibited expression

# Source: patent US20240117005A1, “NOVEL BICYCLIC PEPTIDES” (THE COUNCIL OF THE QUEENSLAND INSTITUTE OF MEDICAL RESEARCH, priority 2021, published 2024)
